Source: ChEMBL document CHEMBL1135412, “Synthesis and in vitro evaluation of quaternary ammonium derivatives of chlorambucil and melphalan, anticancer drugs designed for the chemotherapy of chondrosarcoma” (J Med Chem, 2002)

What was measured:
[1] = Alkylating activity of compound was determined by the NBP assay at 570 nm.; format: functional
[2] = In vitro cytotoxicity in chondrosarcoma cell line (H-EMC-SS) by Alamar blue assay; format: functional; conditions: Homo sapiens
[3] = In vitro cytotoxicity in chondrosarcoma cell line (H-EMC-SS) by Hoechst 33342 DNA Fluorometric assay; format: functional; conditions: Homo sapiens
[4] = tested on: M4Beu cell line; assay: Comparative cellular uptake study performed on M4 Beu (melanoma cell line); format: functional, Homo sapiens
[5] = tested on: B16; assay: In vitro cytotoxicity activity against B16 cells, by colony forming assay; format: functional, cell-based; conditions: Mus musculus
[6] = Glutathione-s-transferase activity of the compound, expressed as percentage of control.; format: functional
[7] = In vitro cytotoxicity activity against M4 Dau, by colony forming assay; format: functional
[8] = Comparative cellular uptake study performed on H-EMC-SS (chondrosarcoma cell line); format: functional, Homo sapiens
[9] = tested on: MCF7S; assay: In vitro cytotoxic activity against MCF7, by colony forming assay; format: functional, cell-based; conditions: Homo sapiens
[10] = Partition coefficient (logD) (octanol/phosphate buffer); format: physicochemical
[11] = tested on: M4Beu cell line; assay: In vitro cytotoxic activity against M4 Beu cells, by colony forming assay; format: functional, cell-based; conditions: Homo sapiens
[12] = In vitro cytotoxic activity against M4 Dau, by colony forming assay; format: functional
[13] = tested on: B16; assay: In vitro cytotoxic activity against B16, by colony forming assay; format: functional, cell-based; conditions: Mus musculus
[14] = tested on: M4Beu cell line; assay: In vitro cytotoxicity activity against M4 Beu, by colony forming assay; format: functional, cell-based; conditions: Homo sapiens
[15] = In vitro cytotoxicity activity against M4 Dau by colony forming assay; format: functional
[16] = tested on: MCF7S; assay: In vitro cytotoxicity activity against MCF-7; format: functional, cell-based; conditions: Homo sapiens
[17] = tested on: B16; assay: In vitro cytotoxicity activity against B16, by colony forming assay; format: functional, cell-based; conditions: Mus musculus
[18] = tested on: MCF7S; assay: In vitro cytotoxicity activity against MCF7, by colony forming assay; format: functional, cell-based; conditions: Homo sapiens

Row | Structure (SMILES) | Alkylating activity [1] | CC50 [2] [nM] | CC50 [3] [nM] | Cellular uptake [4] [pmol/µL] | IC50 [5] [nM] | Glutathione-S-transferase activity (% of control) [6] [%] | IC50 [7] [nM] | Cellular uptake [8] [pmol/µL] | IC50 [9] [nM] | logD ([10]; octanol/water) | IC50 [11] [nM] | IC50 [12] [nM] | IC50 [13] [nM] | logD [10] | IC50 [14] [nM] | IC50 [15] [nM] | IC50 [16] [nM] | IC50 [17] [nM] | IC50 [18] [nM]
1 | O=C(O)CCCc1ccc(N(CCCl)CCCl)cc1 [CHLORAMBUCIL] | 30.2 10e3·k | 3500 | 2700 | 18.4 | 5100 | 60.4 | 1500 | 2.73 | 1700 | 0.75 | 5100 | – | – | – | – | – | – | – | –
2 | C[N+](C)(C)CCCNC(=O)CCCc1ccc(N(CCCl)CCCl)cc1.[I-] | 40.4 10e3·k | 700 | 600 | 16.7 | – | 55.4 | – | 2.97 | 1200 | – | 5100 | 1300 | 8600 | 0.32 | – | – | – | – | –
3 | N[C@@H](Cc1ccc(N(CCCl)CCCl)cc1)C(=O)O [MELPHALAN] | 10.3 10e3·k | 1600 | 900 | 21.9 | – | 85.3 | – | 2.88 | – | – | – | – | – | 0.11 | 1200 | 500 | 300 | 2200 | –
4 | C[N+](C)(C)CCCNC(=O)C(N)Cc1ccc(N(CCCl)CCCl)cc1.[Cl-] (centres undefined) | 15.7 10e3·k | 1800 | 1200 | 6.82 | – | 79 | 3300 | 1.54 | – | – | – | – | – | -1.12 | 14400 | – | – | 19500 | 900
